From article PMC10272112 (Nature Communications, 2023)
Read-outs that look alike come from different tables or passages of the source.

Columns and labels:
Format in all cases: binding
MIER1 = test: Chemoproteomic competition pulldown assay (HDAC interactor); conditions: iQ, SW620 lysate
Description: (§1) To identify proteins directly bound by lipoic acid, we employed a chemoproteomic competition assay. Briefly, (R/S)-LA was immobilized on sepharose beads via an amidation reaction to form an affinity matrix (abbreviated as iL; Fig. 1a). This affinity matrix can be incubated with cell lysate to pull down potential LA or LM target proteins and identify these targets via bottom-up proteomics. In a competition assay, free LA or LM were incubated with lysate at different concentrations before pulling down and quantifying target proteins. […] (Fig. 1b, see “Methods” for details). […] The lysate buffer used in this assay contains 1 mM DTT to mimic the intracellular reductive milieu and to reduce lipoic acid and LM. […] Additional competition assays performed in lung adenocarcinoma cell A549 lysate also identified HDAC1, HDAC2, and HDAC6 as targets (Supplementary Fig. 1b). Amongst the three cell lines tested, HDACs were the only confidently identified targets across the 1500–3000 proteins quantified in these assays. […] We validated the results by analogous pulldown competition assays using two other affinity matrices prepared via the immobilization of either the HDAC inhibitor Quisinostat (iQ) and an analog of the class IIa HDAC inhibitor Bürli’s 31[14] (iC)[12]. We have previously shown that these affinity matrices specifically bind to the active sites of HDACs and have used them for HDACi selectivity profiling. Indeed, binding of (R/S)-LA and (R/S)-LM to HDAC1, HDAC2, HDAC3, HDAC6, and, to a lesser extent, HDAC8 was confirmed in these assays (Supplementary Fig. 1c, d). No binding to class IIa HDACs or the recently discovered common HDAC inhibitor off-target MBLAC2 was observed (Supplementary Fig. 1e)[12]. […] This observation might reflect electrostatic repulsion between the HDAC10 active site gate-keeper glutamic acid residues[15],[16] and the terminal carboxylic acid of LA.
(§2) To assess the degree of protein depletion from lysates by the affinity matrix, a second pulldown (PDPD) with fresh beads was performed using the unbound protein fraction from the vehicle control flow through. The beads were washed (1 × 1 mL of lysis buffer without inhibitors and only 0.4% Igepal, 2 × 2 mL of lysis buffer without inhibitors and only 0.2% Igepal), and captured proteins were denatured with 8 M urea buffer, alkylated with 55 mM chloroacetamide and digested with Trypsin according to standard procedures. The resulting peptides were desalted on a C18 filter plate (Sep-Pak® tC18 µElution Plate, Waters), vacuum dried, and stored at −20 °C until LC–MSMS measurement.
(§3) For the competition assays, relative binding was calculated based on the protein intensity ratio to the DMSO control for every single inhibitor concentration. EC50 values were derived from a four-parameter log-logistic regression with variable slope (constrain: bottom > 0). The obtained EC50 values were multiplied with a protein-dependent correction factor (cf), resulting in the apparent Kd value (Kd^app). The correction factor is determined by calculating the ratio of the protein intensity of two consecutive pulldowns of the vehicle control sample[13]. Targets of the inhibitors were annotated manually according to published procedures[12],[46],[47]. […] Additionally, the number of unique peptides and MSMS counts per condition were taken into account. Positive target binding across several independent experiments performed with different cell lysates further substantiated our confidence for a true positive drug-target binding event.

HDAC1 = HDAC1 (Homo sapiens, UniProt Q13547); test: Chemoproteomic competition pulldown assay; design: endogenous in cells; host or cells: SW620, MV4-11, A549 lysates; conditions: for Kd: read-out: pKdapp (converted)
Sequence of HDAC1 (Q13547 whole entry): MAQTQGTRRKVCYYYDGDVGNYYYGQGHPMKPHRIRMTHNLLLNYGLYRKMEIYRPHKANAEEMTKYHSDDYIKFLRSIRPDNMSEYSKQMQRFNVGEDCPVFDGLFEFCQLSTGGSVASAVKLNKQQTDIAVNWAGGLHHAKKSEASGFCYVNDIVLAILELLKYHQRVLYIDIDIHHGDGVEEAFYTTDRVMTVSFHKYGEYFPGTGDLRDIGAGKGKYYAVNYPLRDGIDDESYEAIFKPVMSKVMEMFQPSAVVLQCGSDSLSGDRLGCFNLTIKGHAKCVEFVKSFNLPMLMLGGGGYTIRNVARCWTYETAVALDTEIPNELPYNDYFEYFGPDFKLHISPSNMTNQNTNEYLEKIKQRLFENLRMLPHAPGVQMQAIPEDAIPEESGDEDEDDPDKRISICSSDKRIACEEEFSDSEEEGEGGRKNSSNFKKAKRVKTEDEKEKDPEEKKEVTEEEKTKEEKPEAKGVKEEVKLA
Description: as §1, §2, §3

HDAC2 = HDAC2 (Homo sapiens, UniProt Q92769); test: Chemoproteomic competition pulldown assay; design: endogenous in cells; host or cells: SW620, MV4-11, A549 lysates
Sequence of HDAC2 (Q92769 whole entry): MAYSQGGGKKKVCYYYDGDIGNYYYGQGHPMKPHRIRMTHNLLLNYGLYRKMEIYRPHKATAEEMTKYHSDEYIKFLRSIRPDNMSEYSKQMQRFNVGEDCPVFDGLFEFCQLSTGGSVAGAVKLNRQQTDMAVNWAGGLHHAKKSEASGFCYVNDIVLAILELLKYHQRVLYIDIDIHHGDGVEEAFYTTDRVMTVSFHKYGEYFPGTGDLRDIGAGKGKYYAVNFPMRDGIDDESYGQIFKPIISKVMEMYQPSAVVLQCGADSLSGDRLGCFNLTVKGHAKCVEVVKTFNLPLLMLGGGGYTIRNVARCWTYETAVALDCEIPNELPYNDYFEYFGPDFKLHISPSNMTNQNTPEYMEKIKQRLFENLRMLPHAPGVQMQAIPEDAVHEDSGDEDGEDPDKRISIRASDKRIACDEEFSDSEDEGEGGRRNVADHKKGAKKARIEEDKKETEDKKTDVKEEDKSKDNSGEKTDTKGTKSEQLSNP
Description: as §1, §2, §3

[1] = iL, A549 lysate, log10 M -4.52288
[2] = iL, A549 lysate, log10 M -5.52288
[3] = iL, A549 lysate, log10 M -6.52288
[4] = iL, A549 lysate, log10 M -7.52288
[5] = iL, A549 lysate, log10 M -8.52288
[6] = iL, SW620 lysate, log10 M -3.52288
[7] = iL, SW620 lysate, log10 M -4.52288
[8] = iL, SW620 lysate, log10 M -5.52288
[9] = iL, SW620 lysate, log10 M -6.52288
[10] = iQ, SW620 lysate, log10 M -3.52288
[11] = iQ, SW620 lysate, log10 M -4.52288
[12] = iQ, SW620 lysate, log10 M -5.52288
[13] = iQ, SW620 lysate, log10 M -6.52288
[14] = iL, SW620, read-out: pKdapp (converted)
[15] = iQ, SW620, read-out: pKdapp (converted)
[16] = iL, MV4-11 lysate, log10 M -3.52288
[17] = iL, MV4-11 lysate, log10 M -4.52288
[18] = iL, MV4-11 lysate, log10 M -5.52288
[19] = iL, MV4-11 lysate, log10 M -6.52288

O=C(O)CCCCC1CCSS1 (racemic) [(R/S)-LA, (R/S)-lipoic acid]
relative binding vs DMSO (MIER1; log10 M -3.52288): 0.1271
relative binding vs DMSO (MIER1; log10 M -4): 0.313
relative binding vs DMSO (MIER1; log10 M -4.52288): 0.5121
relative binding vs DMSO (MIER1; log10 M -5): 0.4151
relative binding vs DMSO (MIER1; log10 M -5.52288): 0.7821
relative binding vs DMSO (MIER1; log10 M -6): 0.8468
relative binding vs DMSO (MIER1; log10 M -6.52288): 1.155
relative binding vs DMSO (MIER1; log10 M -7): 0.8632
Kd (HDAC1; iL, A549): 1 µM
relative binding vs DMSO (HDAC1; iL, A549 lysate, log10 M -4): 0.3621
relative binding vs DMSO (HDAC1; [1]): 0.1828
relative binding vs DMSO (HDAC1; iL, A549 lysate, log10 M -5): 0.2687
relative binding vs DMSO (HDAC1; [2]): 0.5244
relative binding vs DMSO (HDAC1; iL, A549 lysate, log10 M -6): 0.7392
relative binding vs DMSO (HDAC1; [3]): 0.8303
relative binding vs DMSO (HDAC1; [4]): 1.235
relative binding vs DMSO (HDAC1; iL, A549 lysate, log10 M -8): 1.138
relative binding vs DMSO (HDAC1; [5]): 1.054
Kd (HDAC1; iL, SW620): 7.94 µM
relative binding vs DMSO (HDAC1; [6]): 0.1153
relative binding vs DMSO (HDAC1; iL, SW620 lysate, log10 M -4): 0.1408
relative binding vs DMSO (HDAC1; [7]): 0.5904
relative binding vs DMSO (HDAC1; iL, SW620 lysate, log10 M -5): 0.9976
relative binding vs DMSO (HDAC1; [8]): 0.8296
relative binding vs DMSO (HDAC1; iL, SW620 lysate, log10 M -6): 0.9942
relative binding vs DMSO (HDAC1; [9]): 0.9252
relative binding vs DMSO (HDAC1; iL, SW620 lysate, log10 M -7): 1.135
Kd (HDAC1; iQ, SW620): 25.1 µM
relative binding vs DMSO (HDAC1; [10]): 0.2247
relative binding vs DMSO (HDAC1; iQ, SW620 lysate, log10 M -4): 0.2525
relative binding vs DMSO (HDAC1; [11]): 0.6007
relative binding vs DMSO (HDAC1; iQ, SW620 lysate, log10 M -5): 0.7446
relative binding vs DMSO (HDAC1; [12]): 0.8354
relative binding vs DMSO (HDAC1; iQ, SW620 lysate, log10 M -6): 0.8396
relative binding vs DMSO (HDAC1; [13]): 0.9165
relative binding vs DMSO (HDAC1; iQ, SW620 lysate, log10 M -7): 0.8126
Kd (HDAC2; iL, A549, read-out: pKdapp (converted)): 1 µM
relative binding vs DMSO (HDAC2; iL, A549 lysate, log10 M -4): 0.3867
relative binding vs DMSO (HDAC2; [1]): 0.2342
relative binding vs DMSO (HDAC2; iL, A549 lysate, log10 M -5): 0.3145
relative binding vs DMSO (HDAC2; [2]): 0.7222
relative binding vs DMSO (HDAC2; iL, A549 lysate, log10 M -6): 0.7592
relative binding vs DMSO (HDAC2; [3]): 1.015
relative binding vs DMSO (HDAC2; [4]): 1.14
relative binding vs DMSO (HDAC2; iL, A549 lysate, log10 M -8): 1.179
relative binding vs DMSO (HDAC2; [5]): 1.15
Kd (HDAC2; [14]): 6.31 µM
relative binding vs DMSO (HDAC2; [6]): 0.08452
relative binding vs DMSO (HDAC2; iL, SW620 lysate, log10 M -4): 0.1723
relative binding vs DMSO (HDAC2; [7]): 0.723
relative binding vs DMSO (HDAC2; iL, SW620 lysate, log10 M -5): 1.4202
relative binding vs DMSO (HDAC2; [8]): 0.8654
relative binding vs DMSO (HDAC2; iL, SW620 lysate, log10 M -6): 1.086
relative binding vs DMSO (HDAC2; [9]): 0.8422
relative binding vs DMSO (HDAC2; iL, SW620 lysate, log10 M -7): 1.138
Kd (HDAC2; [15]): 31.6 µM
relative binding vs DMSO (HDAC2; [10]): 0.2247
relative binding vs DMSO (HDAC2; iQ, SW620 lysate, log10 M -4): 0.2743
relative binding vs DMSO (HDAC2; [11]): 0.6023
relative binding vs DMSO (HDAC2; iQ, SW620 lysate, log10 M -5): 0.7491
relative binding vs DMSO (HDAC2; [12]): 0.82
relative binding vs DMSO (HDAC2; iQ, SW620 lysate, log10 M -6): 0.8431
relative binding vs DMSO (HDAC2; [13]): 0.9314
relative binding vs DMSO (HDAC2; iQ, SW620 lysate, log10 M -7): 0.8052

NC(=O)CCCCC1CCSS1 (racemic) [(R/S)-LM, (R/S)-lipoamide]
relative binding vs DMSO (MIER1; log10 M -3.52288): 0.1808
relative binding vs DMSO (MIER1; log10 M -4): 0
relative binding vs DMSO (MIER1; log10 M -4.52288): 0.3328
relative binding vs DMSO (MIER1; log10 M -5): 0.7626
relative binding vs DMSO (MIER1; log10 M -5.52288): 0.9557
relative binding vs DMSO (MIER1; log10 M -6): 1.104
relative binding vs DMSO (MIER1; log10 M -6.52288): 0.974
relative binding vs DMSO (MIER1; log10 M -7): 1.319
relative binding vs DMSO (HDAC1; [16]): 0.1265
relative binding vs DMSO (HDAC1; iL, MV4-11 lysate, log10 M -4): 0.2225
relative binding vs DMSO (HDAC1; [17]): 0.3978
relative binding vs DMSO (HDAC1; iL, MV4-11 lysate, log10 M -5): 0.749
relative binding vs DMSO (HDAC1; [18]): 0.6057
relative binding vs DMSO (HDAC1; iL, MV4-11 lysate, log10 M -6): 0.6823
relative binding vs DMSO (HDAC1; [19]): 0.771
relative binding vs DMSO (HDAC1; iL, MV4-11 lysate, log10 M -7): 0.9295
Kd (HDAC1; iL, MV411): 10 µM
Kd (HDAC1; iL, SW620): 12.6 µM
Kd (HDAC1; iQ, SW620): 20 µM
relative binding vs DMSO (HDAC1; [10]): 0.1684
relative binding vs DMSO (HDAC1; iQ, SW620 lysate, log10 M -4): 0.2856
relative binding vs DMSO (HDAC1; [11]): 0.6671
relative binding vs DMSO (HDAC1; iQ, SW620 lysate, log10 M -5): 1.011
relative binding vs DMSO (HDAC1; [12]): 0.8661
relative binding vs DMSO (HDAC1; iQ, SW620 lysate, log10 M -6): 1.096
relative binding vs DMSO (HDAC1; [13]): 1.037
relative binding vs DMSO (HDAC1; iQ, SW620 lysate, log10 M -7): 1.154
relative binding vs DMSO (HDAC2; [16]): 0.0982
relative binding vs DMSO (HDAC2; iL, MV4-11 lysate, log10 M -4): 0.1933
relative binding vs DMSO (HDAC2; [17]): 0.3304
relative binding vs DMSO (HDAC2; iL, MV4-11 lysate, log10 M -5): 0.6612
relative binding vs DMSO (HDAC2; [18]): 0.6399
relative binding vs DMSO (HDAC2; iL, MV4-11 lysate, log10 M -6): 0.7735
relative binding vs DMSO (HDAC2; [19]): 0.8518
relative binding vs DMSO (HDAC2; iL, MV4-11 lysate, log10 M -7): 0.9297
Kd (HDAC2; iL, MV4-11 lysate, read-out: Kd app): 14 µM
Kd (HDAC2; iL, MV411, read-out: pKdapp (converted)): 10 µM
Kd (HDAC2; [14]): 20 µM
Kd (HDAC2; [15]): 20 µM
relative binding vs DMSO (HDAC2; [10]): 0.1341
relative binding vs DMSO (HDAC2; iQ, SW620 lysate, log10 M -4): 0.2239
relative binding vs DMSO (HDAC2; [11]): 0.5192
relative binding vs DMSO (HDAC2; iQ, SW620 lysate, log10 M -5): 0.7829
relative binding vs DMSO (HDAC2; [12]): 0.822
relative binding vs DMSO (HDAC2; iQ, SW620 lysate, log10 M -6): 0.953
relative binding vs DMSO (HDAC2; [13]): 0.8561
relative binding vs DMSO (HDAC2; iQ, SW620 lysate, log10 M -7): 0.9474
